Measured values: ChEMBL document CHEMBL1201862, “PubChem BioAssay data set” (2004)
Calls of active or inactive are those of the source.

Assays:
[1] = Luminescent dose response cell-based high throughput screening assay for inhibitors of the Janus kinase 2 mutant JAK2V617F. [Related pubchem assays: 1446 (Primary screen.), 1521 (Confirmation assay.), 1486 (Counter screen.)]; format: functional
Large T antigen = Large T antigen (Simian virus 40, UniProt P03070); format: functional, Betapolyomavirus macacae;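 also: Confirmatory-stage PubChem screen for compounds that inhibit SV40 T antigen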
[2] = target: T1, Voltage-gated inwardly rectifying potassium channel KCNH2 (Homo sapiens, UniProt Q12809); settings: Potency;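 also: confirmatory quantitative high-throughput screen measuring inhibition of hERG channel activity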
T1 sequence (Q12809 whole entry): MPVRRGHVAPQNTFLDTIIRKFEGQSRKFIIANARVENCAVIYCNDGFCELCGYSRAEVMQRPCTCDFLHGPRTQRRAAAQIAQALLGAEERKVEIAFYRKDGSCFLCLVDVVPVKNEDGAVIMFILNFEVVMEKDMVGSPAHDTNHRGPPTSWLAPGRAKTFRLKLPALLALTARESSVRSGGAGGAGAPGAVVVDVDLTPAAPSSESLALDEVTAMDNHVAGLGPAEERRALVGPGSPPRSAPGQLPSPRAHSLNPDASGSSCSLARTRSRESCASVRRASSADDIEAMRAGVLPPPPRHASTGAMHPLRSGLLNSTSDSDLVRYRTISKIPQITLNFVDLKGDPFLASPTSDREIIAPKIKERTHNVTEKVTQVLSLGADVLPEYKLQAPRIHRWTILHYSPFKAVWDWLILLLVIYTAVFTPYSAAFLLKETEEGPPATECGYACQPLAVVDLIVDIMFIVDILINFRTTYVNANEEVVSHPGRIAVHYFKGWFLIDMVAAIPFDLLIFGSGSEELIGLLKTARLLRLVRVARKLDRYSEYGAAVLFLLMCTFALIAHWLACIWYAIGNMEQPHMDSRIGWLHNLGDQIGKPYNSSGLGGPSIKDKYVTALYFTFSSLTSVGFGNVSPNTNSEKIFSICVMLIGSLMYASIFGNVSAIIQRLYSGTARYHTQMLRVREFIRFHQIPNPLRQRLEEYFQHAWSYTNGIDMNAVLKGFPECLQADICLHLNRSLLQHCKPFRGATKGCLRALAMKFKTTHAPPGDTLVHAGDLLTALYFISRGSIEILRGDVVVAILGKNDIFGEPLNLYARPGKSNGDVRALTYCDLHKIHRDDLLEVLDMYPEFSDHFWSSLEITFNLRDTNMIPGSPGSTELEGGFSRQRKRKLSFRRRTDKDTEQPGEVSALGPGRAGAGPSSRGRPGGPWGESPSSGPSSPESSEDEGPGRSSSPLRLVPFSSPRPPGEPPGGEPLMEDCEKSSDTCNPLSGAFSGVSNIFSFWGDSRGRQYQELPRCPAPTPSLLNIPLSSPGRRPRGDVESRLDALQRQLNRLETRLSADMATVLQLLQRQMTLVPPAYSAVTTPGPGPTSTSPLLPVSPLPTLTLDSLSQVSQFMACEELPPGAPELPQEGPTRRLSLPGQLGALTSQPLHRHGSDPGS

[3] = target: T2, Heat shock factor protein 1 (Mus musculus, UniProt P38532); experiment: inhibition of MG132-induced HSE-luciferase signal, confirmation, cell-based, NIH3T3, luminescence, dose retest (AID 2382); format: functional;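 also: NIH3T3 fibroblasts with HSF1-driven luciferase reporter stressed by proteasome inhibitor MG132; luminescence from HSF1-driven luciferase expression after 8 hours of MG132 stress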
T2 sequence (P38532 whole entry): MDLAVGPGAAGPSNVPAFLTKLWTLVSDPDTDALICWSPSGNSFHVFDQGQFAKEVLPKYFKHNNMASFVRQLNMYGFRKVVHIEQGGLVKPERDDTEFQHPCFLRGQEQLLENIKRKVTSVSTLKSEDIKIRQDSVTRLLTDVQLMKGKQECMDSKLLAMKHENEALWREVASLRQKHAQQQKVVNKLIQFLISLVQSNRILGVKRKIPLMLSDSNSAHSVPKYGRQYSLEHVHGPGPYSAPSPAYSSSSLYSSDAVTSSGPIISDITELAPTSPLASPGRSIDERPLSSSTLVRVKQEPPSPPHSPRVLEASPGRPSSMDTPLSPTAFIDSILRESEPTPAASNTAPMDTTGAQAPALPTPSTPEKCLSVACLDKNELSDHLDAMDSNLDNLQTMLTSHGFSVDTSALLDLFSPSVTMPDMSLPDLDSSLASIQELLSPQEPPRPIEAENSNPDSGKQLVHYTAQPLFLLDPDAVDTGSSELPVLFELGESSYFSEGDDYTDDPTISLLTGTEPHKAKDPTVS

[4] = target: T3, Sphingosine 1-phosphate receptor 4 (Homo sapiens, UniProt O95977); experiment: Fluorescence dose response cell-based high throughput screening assay for antagonists of the Sphingosine 1-Phosphate Receptor 4 (S1P4). [Related pubchem assays: 1524 (Confirmation in triplicates.), 1510 (Primary screen.)]; format: functional
T3 sequence (O95977 whole entry): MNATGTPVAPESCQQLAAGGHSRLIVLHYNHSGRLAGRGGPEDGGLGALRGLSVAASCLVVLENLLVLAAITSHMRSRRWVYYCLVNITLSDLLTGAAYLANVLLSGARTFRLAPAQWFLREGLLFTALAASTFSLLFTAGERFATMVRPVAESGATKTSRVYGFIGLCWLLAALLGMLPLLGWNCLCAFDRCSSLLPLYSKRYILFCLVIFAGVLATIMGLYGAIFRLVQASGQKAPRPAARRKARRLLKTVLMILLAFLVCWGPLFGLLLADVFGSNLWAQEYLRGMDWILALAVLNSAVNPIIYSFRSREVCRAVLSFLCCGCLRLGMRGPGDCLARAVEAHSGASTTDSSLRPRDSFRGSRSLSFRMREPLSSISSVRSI

[5] = target: Sphingosine 1-phosphate receptor 1 (Homo sapiens, UniProt P21453); format: functional;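 also: Tango beta-arrestin reporter U2OS cells stimulated with S1P near its EC80; inhibitor potency meaning antagonism of receptor activation by the natural agonist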
[6] = target: T4, Microphthalmia-associated transcription factor (Homo sapiens, UniProt O75030); experiment: TRPM1 promoter luciferase signal decrease, dose response, MITF inhibitor project, cell-based, SK-MEL-5, cherry-picked, set 3 (AID 493073); format: functional
T4 sequence (O75030 whole entry): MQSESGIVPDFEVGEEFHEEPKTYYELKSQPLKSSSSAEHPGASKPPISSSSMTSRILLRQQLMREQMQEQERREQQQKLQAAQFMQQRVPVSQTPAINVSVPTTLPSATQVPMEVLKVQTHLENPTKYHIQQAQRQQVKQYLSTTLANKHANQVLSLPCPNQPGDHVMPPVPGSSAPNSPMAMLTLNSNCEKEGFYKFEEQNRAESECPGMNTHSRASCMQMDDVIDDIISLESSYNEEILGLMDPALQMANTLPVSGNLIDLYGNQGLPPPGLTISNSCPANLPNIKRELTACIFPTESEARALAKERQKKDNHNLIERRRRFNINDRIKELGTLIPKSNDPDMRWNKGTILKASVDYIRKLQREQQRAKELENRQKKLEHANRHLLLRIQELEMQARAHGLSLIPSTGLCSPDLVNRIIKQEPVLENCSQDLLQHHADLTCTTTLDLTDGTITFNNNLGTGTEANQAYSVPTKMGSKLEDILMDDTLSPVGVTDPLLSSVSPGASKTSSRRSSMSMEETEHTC

A-375 = experiment: A375 melanoma cell viability reduction, dose response, counter-screen for MITF modulator project, cherry-pick samples, set 2 (AID 540335); format: functional, cell-based; settings: Homo sapiens
[7] = Fluorescence-based cell-based high throughput dose response assay for inhibitors of the interaction of nucleotide-binding oligomerization domain containing 2 (NOD2) and the receptor-interacting serine-threonine kinase 2 (RIPK2).; format: functional, Homo sapiens; settings: Homo sapiens
Paired box protein Pax-8 = Paired box protein Pax-8 (Homo sapiens, UniProt Q06710); experiment: inhibitors of PAX8-driven TPO luciferase reporter, dose response, RMG-I cells, cherry-pick (AID 687027); format: functional, cell-based;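 also: luciferase reporter driven by Pax8 target thyroperoxidase promoter measured by SteadyGlo luminescence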
Paired box protein Pax-8, sequence (Q06710 whole entry): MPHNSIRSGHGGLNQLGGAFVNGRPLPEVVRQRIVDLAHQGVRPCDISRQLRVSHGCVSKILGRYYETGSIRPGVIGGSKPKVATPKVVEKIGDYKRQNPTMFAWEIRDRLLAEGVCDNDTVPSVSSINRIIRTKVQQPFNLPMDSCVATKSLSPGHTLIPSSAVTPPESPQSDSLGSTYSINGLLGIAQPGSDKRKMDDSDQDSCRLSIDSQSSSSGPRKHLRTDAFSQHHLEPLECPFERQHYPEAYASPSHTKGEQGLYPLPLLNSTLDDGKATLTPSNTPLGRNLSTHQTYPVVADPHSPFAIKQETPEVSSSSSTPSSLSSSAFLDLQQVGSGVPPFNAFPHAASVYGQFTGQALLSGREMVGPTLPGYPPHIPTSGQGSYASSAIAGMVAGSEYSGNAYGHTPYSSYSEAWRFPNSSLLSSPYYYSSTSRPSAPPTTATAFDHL

[8] = A549 cell cytotoxicity, dose response, cytotoxicity control, plate reader, cherry-pick, antagonist series (AID 743412); format: functional, cell-based
[9] = HepG2 cell cytotoxicity, dose response, cytotoxicity control, plate reader, cherry-pick, antagonist series (AID 743416); format: functional, cell-based
[10] = LGR2 antagonists, dose response, cell-based, HEK293, CRE-luciferase reporter, cherry pick, set 2 (AID 743343); format: functional;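 also: transfected cells were stimulated with diluted bursicon conditioned medium after compound addition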
[11] = non-specific cell cytotoxicity, dose response, cytotoxicity control for PAX8 inhibitor project, plate reader, dry powder samples (AID 743021); format: functional, cell-based
[12] = MC4R antagonists, dose response, counter-screen for LGR2 antagonist project, cell-based, plate reader, cherry pick (AID 743444); format: functional;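 also: transfected HEK 293 cells stimulated with alpha-MSH peptide; potency of inhibitors of the alpha-MSH evoked signal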
[13] = HEK293 cell cytotoxicity, dose response, cytotoxicity control, plate reader, cherry-picked samples (AID 743446); format: functional, cell-based
[14] = HEp-2 cell cytotoxicity, dose response, cytotoxicity control for RSV inhibitor project, HTS (AID 2410); format: functional; settings: human respiratory syncytial virus
Vero [15] = experiment: West Nile virus antiviral activity, cell-based, CPE readout (AID 1621); format: functional; settings: Chlorocebus sabaeus
Vero [16] = experiment: cells; format: functional, cell-based; settings: Chlorocebus sabaeus
Vero [17] = experiment: cells; format: functional; settings: Chlorocebus sabaeus
Ephrin type-A receptor 4 = Ephrin type-A receptor 4 (Mus musculus, UniProt Q03137); experiment: inhibitors of EphA4 binding to KYL peptide, primary screen, biochemical, colorimetric, mouse EphA4 (AID 689); format: functional
Ephrin type-A receptor 4, sequence (Q03137 whole entry): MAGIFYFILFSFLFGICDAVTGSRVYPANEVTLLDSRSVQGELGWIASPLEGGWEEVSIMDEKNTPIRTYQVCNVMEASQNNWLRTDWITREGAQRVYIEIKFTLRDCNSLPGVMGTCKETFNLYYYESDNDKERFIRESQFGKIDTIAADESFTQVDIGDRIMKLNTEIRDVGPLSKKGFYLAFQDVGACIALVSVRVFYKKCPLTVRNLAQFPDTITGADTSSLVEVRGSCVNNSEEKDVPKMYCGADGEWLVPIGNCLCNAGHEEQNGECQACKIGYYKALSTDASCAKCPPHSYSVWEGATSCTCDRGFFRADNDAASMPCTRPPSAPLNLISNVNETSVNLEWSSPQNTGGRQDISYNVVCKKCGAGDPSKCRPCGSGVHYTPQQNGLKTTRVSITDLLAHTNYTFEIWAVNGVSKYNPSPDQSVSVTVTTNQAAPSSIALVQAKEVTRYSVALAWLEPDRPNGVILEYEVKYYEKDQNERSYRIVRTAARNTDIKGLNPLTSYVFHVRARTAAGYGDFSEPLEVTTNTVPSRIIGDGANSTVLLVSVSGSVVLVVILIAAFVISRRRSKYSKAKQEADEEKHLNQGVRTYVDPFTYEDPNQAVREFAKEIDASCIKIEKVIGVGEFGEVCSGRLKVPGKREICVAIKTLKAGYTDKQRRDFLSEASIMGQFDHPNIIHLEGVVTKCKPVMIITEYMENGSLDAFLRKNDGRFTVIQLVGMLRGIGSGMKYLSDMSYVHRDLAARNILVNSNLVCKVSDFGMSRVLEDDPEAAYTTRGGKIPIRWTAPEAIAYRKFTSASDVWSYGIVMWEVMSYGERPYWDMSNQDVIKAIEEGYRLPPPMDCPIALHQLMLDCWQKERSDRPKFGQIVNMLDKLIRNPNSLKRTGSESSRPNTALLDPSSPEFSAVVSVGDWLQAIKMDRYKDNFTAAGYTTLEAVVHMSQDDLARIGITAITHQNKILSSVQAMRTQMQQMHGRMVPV

[18] = target: T1, Voltage-gated inwardly rectifying potassium channel KCNH2; experiment: hERG protection from proarrhythmic block, potency, dose response, cell-based, thallium flux (AID 2121); format: ADME
Mucolipin-3 [19] = target: T5, Mucolipin-3 (Homo sapiens, UniProt Q8TDD5); experiment: TRPML3 agonist potency, dose response, cell-based, calcium fluorescence (AID 2510); format: functional
T5 sequence (Q8TDD5 whole entry): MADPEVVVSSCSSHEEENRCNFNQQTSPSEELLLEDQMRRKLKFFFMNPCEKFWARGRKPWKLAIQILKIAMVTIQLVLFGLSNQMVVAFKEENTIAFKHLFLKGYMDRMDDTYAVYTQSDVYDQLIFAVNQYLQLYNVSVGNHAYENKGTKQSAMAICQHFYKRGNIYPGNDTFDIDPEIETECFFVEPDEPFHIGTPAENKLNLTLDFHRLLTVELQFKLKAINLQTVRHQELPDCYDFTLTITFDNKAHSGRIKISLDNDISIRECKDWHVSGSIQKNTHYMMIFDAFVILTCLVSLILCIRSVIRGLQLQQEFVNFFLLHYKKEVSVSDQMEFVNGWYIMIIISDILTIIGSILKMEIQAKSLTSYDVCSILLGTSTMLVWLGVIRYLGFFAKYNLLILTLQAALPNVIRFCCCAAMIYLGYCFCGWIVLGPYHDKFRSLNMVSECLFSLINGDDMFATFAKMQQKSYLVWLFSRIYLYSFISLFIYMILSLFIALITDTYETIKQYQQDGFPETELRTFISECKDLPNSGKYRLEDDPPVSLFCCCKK

Mucolipin-3 [20] = target: T5, Mucolipin-3; experiment: Dose response cell-based high-throughput screening assay for agonists of the transient receptor potential channel ML3 (TRPML3). [Related pubchem assays: 1526, 1424, 1448 ]; format: functional
Ion channel NompC [21] = target: T6, Ion channel NompC (Danio rerio, UniProt Q7T1G6); experiment: Late stage counterscreen for the probe development effort to identify selective agonists of the Transient Receptor Potential Channels 3 (TRPML3): fluorescence-based cell-based dose response assay for TRPN1 agonists.; format: functional
T6 sequence (Q7T1G6 whole entry): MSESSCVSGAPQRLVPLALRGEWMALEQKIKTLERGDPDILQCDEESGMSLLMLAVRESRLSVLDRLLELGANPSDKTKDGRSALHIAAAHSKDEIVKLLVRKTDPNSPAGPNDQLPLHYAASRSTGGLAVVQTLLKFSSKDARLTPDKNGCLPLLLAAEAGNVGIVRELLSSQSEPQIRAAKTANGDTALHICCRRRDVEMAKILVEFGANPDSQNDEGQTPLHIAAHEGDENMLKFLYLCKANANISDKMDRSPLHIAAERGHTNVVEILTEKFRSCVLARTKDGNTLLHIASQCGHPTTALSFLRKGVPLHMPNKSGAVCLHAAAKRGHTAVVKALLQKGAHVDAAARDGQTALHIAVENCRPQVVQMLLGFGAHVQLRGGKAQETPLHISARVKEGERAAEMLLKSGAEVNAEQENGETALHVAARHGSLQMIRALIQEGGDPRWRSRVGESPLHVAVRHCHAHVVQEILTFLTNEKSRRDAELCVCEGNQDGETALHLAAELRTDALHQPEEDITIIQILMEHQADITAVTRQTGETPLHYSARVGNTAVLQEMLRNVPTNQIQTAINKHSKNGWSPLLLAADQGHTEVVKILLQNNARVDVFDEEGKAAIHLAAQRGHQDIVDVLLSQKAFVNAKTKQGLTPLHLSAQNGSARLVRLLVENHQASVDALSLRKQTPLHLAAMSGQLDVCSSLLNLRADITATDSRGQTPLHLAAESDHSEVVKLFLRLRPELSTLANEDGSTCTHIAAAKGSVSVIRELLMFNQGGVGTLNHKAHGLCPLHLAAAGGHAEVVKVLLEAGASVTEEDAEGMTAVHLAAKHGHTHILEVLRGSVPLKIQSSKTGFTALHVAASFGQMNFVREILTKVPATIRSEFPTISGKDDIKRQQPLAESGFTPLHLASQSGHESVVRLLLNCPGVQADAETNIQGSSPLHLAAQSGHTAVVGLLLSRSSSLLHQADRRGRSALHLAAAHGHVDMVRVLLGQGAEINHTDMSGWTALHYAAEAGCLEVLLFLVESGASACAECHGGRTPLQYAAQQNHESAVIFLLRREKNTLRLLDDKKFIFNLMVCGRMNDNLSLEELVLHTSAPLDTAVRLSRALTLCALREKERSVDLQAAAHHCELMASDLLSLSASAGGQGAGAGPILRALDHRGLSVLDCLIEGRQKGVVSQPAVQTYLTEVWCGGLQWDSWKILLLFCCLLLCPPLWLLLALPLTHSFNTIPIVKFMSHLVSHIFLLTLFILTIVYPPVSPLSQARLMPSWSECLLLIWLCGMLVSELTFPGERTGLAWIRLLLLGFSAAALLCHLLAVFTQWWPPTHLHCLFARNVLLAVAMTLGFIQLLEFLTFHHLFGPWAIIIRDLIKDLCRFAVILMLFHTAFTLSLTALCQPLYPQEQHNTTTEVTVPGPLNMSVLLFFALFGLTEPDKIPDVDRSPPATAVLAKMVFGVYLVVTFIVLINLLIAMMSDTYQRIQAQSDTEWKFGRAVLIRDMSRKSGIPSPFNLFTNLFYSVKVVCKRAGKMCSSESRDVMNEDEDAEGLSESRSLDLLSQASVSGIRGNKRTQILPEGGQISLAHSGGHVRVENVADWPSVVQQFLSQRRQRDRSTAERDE

Ion channel NompC [22] = target: T6, Ion channel NompC; experiment: Fluorescence counterscreen assay for TRPML3 agonists: dose response cell-based high-throughput screening assay to identify agonists of the transient receptor potential channel N1 (TRPN1). [Related pubchem assays: 1526, 1424, 1448 ]; format: functional
[23] = Luminescence Cell-Based Dose Response to Identify Activators of 5'UTR Stem-Loop Driven Prion Protein mRNA Translation in H4-C Neuroglioblastoma Cells. [Related pubchem assays: 1829 (Project Summary), 1814 (Primary HTS)]; format: functional
[24] = Luminescence Cell-Based Dose Response HTS to Identify Activators of Luciferase Translation or Activity in H4 […] Cells. [Related pubchem assays: 1829 (Project Summary), 1814 (Primary HTS)]; format: functional
H4 = experiment: Luminescence Cell-Based Dose Response HTS to Identify Activators of 5'UTR Stem-Loop Driven Prion Protein mRNA Translation in H4 Neuroglioblastoma Cells. [Related pubchem assays: 1829 (Project Summary), 1814 (Primary HTS)]; format: functional; settings: Homo sapiens
[25] = Luminescence Cell-Based Dose Response to Identify Activators of Luciferase Translation or Activity in H4-C Neuroglioblastoma Cells. [Related pubchem assays: 1829 (Project Summary), 1814 (Primary HTS)]; format: functional
[26] = Luminescence Cell-Based Dose Confirmation to Identify Activators of 5'UTR Stem-Loop Driven Alpha-Synuclein mRNA Translation in H4 Neuroglioblastoma Cells. [Related pubchem assays: 1829 (Project Summary), 1814 (Primary HTS)]; format: functional
[27] = target: T7, Oxysterols receptor LXR-beta (Homo sapiens, UniProt P55055); format: functional, cell-based;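 also: agonist activity at LXR measured by a cell-based luminescence readout across a dose range, run as a counterscreen for daf-12 agonists; HEK293 cells with Gal4-LXR fusion and GAL4-driven luciferase reporter; potency for activation of Gal4-LXR reporter so compounds are agonists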
T7 sequence (P55055 whole entry): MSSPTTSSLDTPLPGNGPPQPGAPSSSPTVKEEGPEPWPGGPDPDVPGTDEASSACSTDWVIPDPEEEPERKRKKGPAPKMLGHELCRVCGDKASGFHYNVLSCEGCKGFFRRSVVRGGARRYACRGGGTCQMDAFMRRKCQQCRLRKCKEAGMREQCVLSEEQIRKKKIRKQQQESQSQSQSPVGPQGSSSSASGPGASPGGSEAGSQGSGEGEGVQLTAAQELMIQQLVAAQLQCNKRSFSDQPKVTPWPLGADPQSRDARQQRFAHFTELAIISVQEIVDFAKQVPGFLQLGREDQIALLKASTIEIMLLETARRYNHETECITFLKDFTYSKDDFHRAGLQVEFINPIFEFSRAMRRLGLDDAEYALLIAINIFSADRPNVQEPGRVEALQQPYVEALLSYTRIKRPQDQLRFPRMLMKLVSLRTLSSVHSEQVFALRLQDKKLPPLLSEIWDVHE

[28] = target: Potassium voltage-gated channel subfamily KQT member 2 (Rattus norvegicus, UniProt O88943, W236L); experiment: KCNQ2 channel potentiators, dose response, mechanism study for KCNQ2 potentiator project, cell-based, automated electrophysiology (AID 2603); format: functional
Potassium voltage-gated channel subfamily KQT member 2, sequence (O88943 whole entry W236L): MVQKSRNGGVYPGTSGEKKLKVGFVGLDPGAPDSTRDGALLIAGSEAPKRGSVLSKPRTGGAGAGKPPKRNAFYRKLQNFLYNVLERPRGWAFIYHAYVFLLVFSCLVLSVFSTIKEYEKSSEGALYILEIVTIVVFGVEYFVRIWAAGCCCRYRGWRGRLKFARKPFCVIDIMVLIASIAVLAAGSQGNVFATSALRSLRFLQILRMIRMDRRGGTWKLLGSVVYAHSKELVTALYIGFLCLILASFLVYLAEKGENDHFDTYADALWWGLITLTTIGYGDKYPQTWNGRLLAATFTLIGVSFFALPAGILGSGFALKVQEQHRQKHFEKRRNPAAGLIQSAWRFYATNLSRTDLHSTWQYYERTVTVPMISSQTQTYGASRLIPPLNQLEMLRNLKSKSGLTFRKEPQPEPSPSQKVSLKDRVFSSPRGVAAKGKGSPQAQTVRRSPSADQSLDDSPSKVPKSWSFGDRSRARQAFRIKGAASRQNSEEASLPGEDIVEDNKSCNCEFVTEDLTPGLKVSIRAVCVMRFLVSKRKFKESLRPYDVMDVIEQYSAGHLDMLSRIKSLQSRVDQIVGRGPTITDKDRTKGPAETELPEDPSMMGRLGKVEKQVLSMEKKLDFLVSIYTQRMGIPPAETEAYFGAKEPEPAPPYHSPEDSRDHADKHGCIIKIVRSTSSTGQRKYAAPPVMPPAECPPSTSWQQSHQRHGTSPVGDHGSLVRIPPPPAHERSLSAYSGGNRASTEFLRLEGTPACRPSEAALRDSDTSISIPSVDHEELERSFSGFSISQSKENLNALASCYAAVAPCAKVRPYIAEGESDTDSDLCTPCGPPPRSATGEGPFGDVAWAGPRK

[29] = target: Neuropeptide Y receptor type 1 (Homo sapiens, UniProt P25929); format: functional;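 also: HEK293 cells with a CNG channel challenged with NPY then isoproterenol; potency as antagonist that reverses NPY suppression of cAMP signal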
[30] = target: Neuropeptide Y receptor type 2 (Homo sapiens, UniProt P49146); format: functional, cell-based;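 also: HEK293 cells expressing the receptor and a CNG channel; stimulus was NPY near EC95 followed by isoproterenol to raise cAMP; antagonist potency measured as restoring cAMP signal that NPY suppresses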

N#C/C(=C\c1ccc(O)c(O)c1)C(=O)NCCCc1ccccc1
IC50 [1]: 1.7 µM (active) | IC50 (Large T antigen): 21 µM (active) | AC50 [2]: 15.8 µM (inconclusive)

O=c1c(Cl)c(Cl)cnn1-c1ccccc1
EC50 [3]: 5.45 µM (active) | IC50 [4]: 1.86 µM (active) | IC50 [5]: 8.71 µM (active) | AC50 [6]: 9.54 µM (active) | AC50 (A-375): 23.8 µM (active) | IC50 [7]: 49.7 µM (inactive) | AC50 (Paired box protein Pax-8): 6.1 µM (active) | AC50 [8]: 7.52 µM (active) | AC50 [9]: 14.4 µM (active) | AC50 [10]: 19 µM (active) | AC50 [11]: 25.8 µM (active) | AC50 [12]: 16.3 µM (active) | AC50 [13]: 4.49 µM (active)

Cc1c(NC(=O)COC(=O)c2cc(-c3ccc(-c4ccccc4)cc3)nc3ccccc23)c(=O)n(-c2ccccc2)n1C
CC50 [14]: 2.93 µM (active) | IC50 (Vero [15]): 21.1 µM (active) | IC50 (Vero [16]): 2.09 µM (active) | CC50 (Vero [17]): 11.5 µM (active) | IC50 (cells): 0.53 µM (active)

COC(=O)CSc1nc(-c2ccccc2)cc(-c2ccco2)c1C#N
IC50 (Ephrin type-A receptor 4): > 100 µM (not active)

O=C(/C=C/c1ccccc1)CC(=O)c1ccccc1O
EC50 [18]: 2.67 µM (active)

Cc1ccc(S(=O)(=O)n2nccc2-c2c(-c3ccc(Cl)cc3)noc2C)cc1
EC50 (Mucolipin-3 [19]): 0.253 µM (active) | EC50 (Mucolipin-3 [20]): 0.325 µM (active) | EC50 (Ion channel NompC [21]): > 29.9 µM (not active) | EC50 (Ion channel NompC [22]): > 29.9 µM (not active)

CCOC(=O)c1c[nH]nc1N=C(S)Nc1ccccc1
EC50 [23]: 0.352 µM (active) | EC50 [24]: < 0.1 µM (active) | EC50 (H4): > 120 µM (not active) | EC50 [25]: 0.324 µM (active) | EC50 [26]: 0.38 µM (active) | EC50 [27]: > 67.6 µM (inactive)

Clc1ccc(Nc2ccc(Cl)nn2)cc1
EC50 [3]: > 195 µM (not active) | EC50 [28]: 7.86 µM (active)

Cc1ccc(NC(S)=NCc2ccc3c(c2)OCO3)cc1C
IC50 [29]: 9.96 µM (active) | IC50 [30]: 10 µM (not active)
